Assay results published in US7537765B2, “Inhibition of HIV-1 replication by disruption of the processing of the viral capsid-spacer peptide 1 protein” (priority 2003, dated 2009).
Entries after “also recorded” stand apart in the source; their conditions may differ. Read-outs that look alike come from different tables or passages of the source.

Key:
HIV-1IIIB = assay: Virus production and Gag processing (western blot) in chronically infected H9/HIV-1IIIB cells; format: cell-based
Description: (§1) FIG. 2. […] Gag proteins were visualized using HIV-Ig (HIV-1) or monkey anti-SIVmac251 serum (HIV-2 and SIV; NIH AIDS Research and Reference Reagent Program).
(§2) In order to better define DSB's mechanism of action, a detailed examination was undertaken of the virus produced from HIV-1-infected cell lines treated with DSB. Briefly, H9 cells chronically infected with the HIV-1IIIB isolate were treated with DSB at 1 μg/mL for a period of 48 hrs. Indinavir was used as a control. At the 48 hr time-point, spent media was removed and fresh media containing compound was added. At 24, 48 and 72 hrs post fresh compound addition, both cells and supernatant were recovered for analysis. The level of virus in the culture supernatant was determined and western blots were used to characterize viral protein production in both cell-associated and cell-free virus. […] This defect took the form of an additional band in the western blots corresponding to p25 (FIG. 2). This p25 band results from the incomplete processing of the capsid CA-SP1 precursor. […] As discussed above, mutations at the p25 to p24 cleavage site that prevent processing are associated with defects in viral maturation and infectivity (Wiegers K. et al., J. Virol. 72:2846-54 (1998)).

[1] = tested on: DSB-resistant HIV-1 viruses; assay: Western blot of CA-SP1 cleavage in drug-resistant viruses; format: cell-based; conditions: drug-resistant viruses in the presence of DSB
Description: To determine if the resistant viruses were able to escape the CA-SP1 cleavage defect caused by DSB in wild-type virus, stocks of each virus grown in either the presence or absence of drug were analyzed by Western blot. Virus was pelleted through a 20% sucrose cushion from filtered culture supernatants that were collected 60 hr post-infection and 18 hr after the cells had been washed and fresh drug added. The viruses were lysed, and the amount of each virus was normalized by quantitating p24 levels in each sample.

HIV-2ROD = assay: Gag processing (western blot) in chronically infected H9/HIV-2ROD cells; format: cell-based
Description: as §1, §2

[2] = tested on: drug resistant HIV-1 isolates; assay: Drug resistant HIV-1 isolates in fresh PBMC, p24 endpoint; format: cell-based; conditions: read-out: IC50
Description: (§3) A robust virus inhibition assay was used to evaluate the anti-viral activity of DSB against primary HIV-1 isolates propagated in PMBC. Briefly, serial dilutions of DSB were made in medium into 96-well tissue culture plates. 25-250 TCID50 of virus and 5×10^5 PHA-stimulated PBMCs were added to each well. On days 1, 3 and 5 post-infection, media was removed from each well and replaced with fresh media containing DSB at the appropriate concentration.
The activity of DSB was tested against a panel of HIV-1 isolates resistant to approved drugs. These viruses were obtained from the NIH AIDS Research and Reference Reagent Program. Assays were performed using virus propagated in PBMCs with a p24 endpoint (above), or using cell line targets (MT-2 cells) and a cell killing endpoint. The MT-2 assay format was as follows. Serial dilutions of DSB, or each approved drug, were prepared in 96 well plates. To each sample well was added media containing MT-2 cells at 3×10^5 cells/mL and virus inoculum at a concentration necessary to result in 80% killing of the cell targets at 5 days post-infection (PI). On day 5 post-infection, virus-induced cell killing was determined by the XTT method and the inhibitory activity of the compound was determined.

[3] = tested on: primary Clade B HIV-1 isolates; assay: Virus inhibition assay, primary HIV-1 isolates in PBMC, p24 endpoint; format: cell-based
Description: as §3, with “concentration. On day 7 post-infection, culture supernatant was removed from each well for p24 detection of virus replication and 50% inhibitory concentrations (IC50) were calculated by standard methods.” for “concentration.”

HIV-1 protease [4] = target: T1, HIV-1 protease (Human immunodeficiency virus type 1 group M subtype B, UniProt P12497); assay: Cell-free fluorometric protease assay, synthetic peptide substrate; format: biochemical; parameters: DSB had no effect on HIV-1 protease function using a cell-free fluorometric assay; conditions: concentrations up to 50 μg/mL
Description: It was previously determined that DSB had no effect on HIV-1 protease function using a cell-free fluorometric assay that characterized enzyme activity by following the cleavage of a synthetic peptide substrate. […] As a result of the observation that DSB blocks virus replication at a late step, studies were also performed using a recombinant form of the Gag protein, which is a more relevant system than the synthetic peptide substrate used in the initial assays.

HIV-1 protease [5] = target: T1, HIV-1 protease; format: biochemical; conditions: recombinant Gag, 50 μg/mL

SMILES: C=C(C)[C@@H]1CC[C@]2(C(=O)O)CC[C@]3(C)[C@H](CC[C@@H]4[C@@]5(C)CC[C@H](OC(=O)CC(C)(C)C(=O)O)C(C)(C)[C@@H]5CC[C@]43C)[C@@H]12 [DSB, 3-O-(3′,3′-dimethylsuccinyl)betulinic acid]
- Gag processing (p25 band in western blot) (HIV-1IIIB; 1 μg/mL, cell-associated and cell-free virus): defect in Gag processing
- amount of virus produced (HIV-1IIIB; 1 μg/mL, chronically infected H9 cells): did not cause a significant reduction in the amount of virus produced
- effect on virus release (HIV-1IIIB; a variety of experimental systems): does not have a significant effect on virus release
- CA-SP1 product in virus (Western blot) [1]: did not contain the CA-SP1 product
- antiviral activity (HIV-2ROD; HIV-2): lack of antiviral activity
- Gag processing (HIV-2ROD; HIV-2 chronically infected cell line, 1 μg/mL): normal Gag processing
- IC50 ([2]; isolate 1, NRTI-resistant, K70R T215Y/F, R5/X4): 4.4 nM
- IC50 ([2]; isolate 2, NRTI-resistant, K70R T215Y/F, R5/X4): 4.2 nM
- IC50 ([2]; isolate 5, Protease-resistant, V82A, X4): 5.6 nM
- IC50 ([2]; isolate 6, Protease-resistant, I84V, X4): 5.5 nM
- IC50 ([2]; isolate 7, Protease-resistant, L10R/M46I/L63P/V82T/I84V, X4): 12.9 nM
- IC50 ([3]; isolate 92HT599, co-receptor X4, PBMC, p24 day 7, read-out: IC50): 9.8 nM
- IC50 ([3]; isolate 92US723, co-receptor R5/X4, PBMC, p24 day 7, read-out: IC50): 4.6 nM
- IC50 ([3]; isolate 3401N*, co-receptor R5/X4, PBMC, p24 day 7, read-out: IC50): 12 nM
- IC50 ([3]; isolate 19101N*, co-receptor R5, PBMC, p24 day 7, read-out: IC50): 3.8 nM
- IC50 ([3]; isolate 22101N*, co-receptor R5/X4, PBMC, p24 day 7, read-out: IC50): 2.6 nM
- IC50 ([3]; isolate BZ167, co-receptor X4, PBMC, p24 day 7, read-out: IC50): 4 nM
- IC50 ([3]; isolate US1, co-receptor R5, PBMC, p24 day 7, read-out: IC50): 5.6 nM
- IC50 ([3]; mean over the panel of primary isolates, read-out: IC50, Mean): 6.1 nM
- effect on HIV-1 protease function (HIV-1 protease [4]): no effect on protease function
- effect on protease-mediated Gag protein processing (HIV-1 protease [5]): did not disrupt protease-mediated Gag protein processing; also recorded: does not disrupt the activity of HIV-1 protease
